In patent US6506772B1, “Substituted [1,2,4]triazolo[1,5a]pyridine derivatives with activity as adenosine receptor ligands” (Hoffmann-La Roche Inc., priority 2000, dated 2003):

Key:
HA1 adenosine receptor = molecular target: T1, HA1 adenosine receptor (Homo sapiens, UniProt P30542); test: Human adenosine A1 receptor affinity (Ki hA1); type: binding; conditions: affinity to human adenosine A1 receptor
T1 sequence (P30542 1-326): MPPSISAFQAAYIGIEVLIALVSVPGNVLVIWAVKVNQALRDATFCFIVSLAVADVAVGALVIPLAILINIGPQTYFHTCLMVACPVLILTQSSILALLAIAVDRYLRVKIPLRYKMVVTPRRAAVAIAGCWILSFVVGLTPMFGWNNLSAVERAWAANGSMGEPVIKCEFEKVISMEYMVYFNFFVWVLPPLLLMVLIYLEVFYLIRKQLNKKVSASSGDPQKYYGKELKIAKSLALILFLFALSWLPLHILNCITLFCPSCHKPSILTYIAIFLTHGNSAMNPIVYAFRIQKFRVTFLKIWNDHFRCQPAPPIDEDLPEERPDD

[1] = molecular target: T2, human adenosine A2A receptor (Homo sapiens, UniProt P29274); test: Human adenosine A2A receptor [3H]-SCH-58261 binding assay; conditions: for Ki: affinity to human adenosine A2A receptor, read-out: Ki HA2A; for selectivity (A1/A2a): calculated ratio of the affinity to the HA1 receptor to the HA2a receptor
T2 construct: expressed in transfected cells; host or cells: CHO cells, Semliki Forest virus expression system; membrane preparation
T2 sequence (P29274 whole entry): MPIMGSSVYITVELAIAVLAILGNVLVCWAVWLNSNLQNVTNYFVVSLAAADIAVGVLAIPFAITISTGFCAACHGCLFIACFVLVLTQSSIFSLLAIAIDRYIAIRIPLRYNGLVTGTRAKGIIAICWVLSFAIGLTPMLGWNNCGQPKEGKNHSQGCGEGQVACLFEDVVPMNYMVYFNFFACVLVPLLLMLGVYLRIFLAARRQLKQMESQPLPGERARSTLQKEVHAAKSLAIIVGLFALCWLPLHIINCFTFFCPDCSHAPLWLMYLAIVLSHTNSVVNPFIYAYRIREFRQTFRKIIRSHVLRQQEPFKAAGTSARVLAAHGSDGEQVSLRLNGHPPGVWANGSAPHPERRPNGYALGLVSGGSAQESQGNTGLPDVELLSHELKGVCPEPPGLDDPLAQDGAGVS

Row | Ki (HA1 adenosine receptor) [nM] | Ki [1] [nM] | selectivity (A1/A2a) [1] | Structure (SMILES)
1 | 131 | 108 | 1.2 | Cc1ccsc1-c1nc2cc(C(=O)NCc3ccccc3Cl)cc(N)n2n1 [Example 191, 5-Amino-2-(3-methyl-thiophen-2-yl)-[1,2,4]triazolo[1,5-a]pyridine-7-carboxylic acid 2-chloro-benzylamide]
2 | 112 | 129 | 0.9 | COc1ccccc1CNC(=O)c1cc(N)n2nc(-c3sccc3C)nc2c1 [Example 192, 5-Amino-2-(3-methyl-thiophen-2-yl)-[1,2,4]triazolo[1,5-a]pyridine-7-carboxylic acid 2-methoxy-benzylamide]
3 | 74.8 | 41.7 | 1.8 | CCCCNC(=O)c1cc(N)n2nc(-c3ccc(C)s3)nc2c1 [Example 193, 5-Amino-2-(5-methyl-thiophen-2-yl)-[1,2,4]triazolo[1,5-a]pyridine-7-carboxylic acid butylamide]
4 | 246 | 56.3 | 4.4 | CCN(C(=O)c1cc(N)n2nc(-c3ccc(C)s3)nc2c1)C(C)C [Example 194, 5-Amino-2-(5-methyl-thiophen-2-yl)-[1,2,4]triazolo[1,5-a]pyridine-7-carboxylic acid ethyl-isopropyl-amide]
5 | 145 | 109 | 1.3 | Cc1ccc(-c2nc3cc(C(=O)NC4CCCCC4)cc(N)n3n2)s1 [Example 195, 5-Amino-2-(5-methyl-thiophen-2-yl)-[1,2,4]triazolo[1,5-a]pyridine-7-carboxylic acid cyclohexylamide]
6 | 432 | 52.2 | 8.3 | Cc1ccc(-c2nc3cc(C(=O)N4CCCC4)cc(N)n3n2)s1 [Example 196, [5-Amino-2-(5-methyl-thiophen-2-yl)-[1,2,4]triazolo[1,5-a]pyridin-7-yl]-pyrrolidin-1-yl-methanone]
7 | 90.3 | 178 | 0.5 | Cc1ccc(-c2nc3cc(C(=O)NCc4ccccc4)cc(N)n3n2)s1 [Example 197, 5-Amino-2-(5-methyl-thiophen-2-yl)-[1,2,4]triazolo[1,5-a]pyridine-7-carboxylic acid benzylamide]
8 | 112 | 174 | 0.6 | Cc1ccc(-c2nc3cc(C(=O)NC(C)c4ccccc4)cc(N)n3n2)s1 (stereo not drawn) [Example 198, 5-Amino-2-(5-methyl-thiophen-2-yl)-[1,2,4]triazolo[1,5-a]pyridine-7-carboxylic acid (1-phenyl-ethyl)-amide]
9 | 36.9 | 30.2 | 1.2 | Cc1ccc(-c2nc3cc(C(=O)NCc4ccccc4Cl)cc(N)n3n2)s1 [Example 199, 5-Amino-2-(5-methyl-thiophen-2-yl)-[1,2,4]triazolo[1,5-a]pyridine-7-carboxylic acid 2-chloro-benzylamide]
10 | 37.9 | 22 | 1.7 | Cc1ccc(-c2nc3cc(C(=O)NCc4ccccc4Br)cc(N)n3n2)s1 [Example 200, 5-Amino-2-(5-methyl-thiophen-2-yl)-[1,2,4]triazolo[1,5-a]pyridine-7-carboxylic acid 2-bromo-benzylamide]
11 | 33 | 31.3 | 1.1 | COc1ccccc1CNC(=O)c1cc(N)n2nc(-c3ccc(C)s3)nc2c1 [Example 201, 5-Amino-2-(5-methyl-thiophen-2-yl)-[1,2,4]triazolo[1,5-a]pyridine-7-carboxylic acid 2-methoxy-benzylamide]
12 | 678 | 310 | 2.2 | COc1cc(CNC(=O)c2cc(N)n3nc(-c4ccc(C)s4)nc3c2)cc(OC)c1OC [Example 202, 5-Amino-2-(5-methyl-thiophen-2-yl)-[1,2,4]triazolo[1,5-a]pyridine-7-carboxylic acid 3,4,5-trimethoxy-benzylamide]
13 | 66.2 | 60 | 1.1 | Cc1ccc(-c2nc3cc(C(=O)NC4CCc5ccccc54)cc(N)n3n2)s1 (stereo not drawn) [Example 203, 5-Amino-2-(5-methyl-thiophen-2-yl)-[1,2,4]triazolo[1,5-a]pyridine-7-carboxylic acid indan-1-ylamide]
14 | 325 | 41.7 | 7.8 | CN(Cc1ccccc1)C(=O)c1cc(N)n2nc(-c3nccs3)nc2c1 [Example 204, 5-Amino-2-thiazol-2-yl-[1,2,4]triazolo[1,5-a]pyridine-7-carboxylic acid benzyl-methyl-amide]
15 | 294 | 157 | 1.9 | Nc1cc(C(=O)NCc2ccc(Cl)cc2)cc2nc(-c3nccs3)nn12 [Example 205, 5-Amino-2-thiazol-2-yl-[1,2,4]triazolo[1,5-a]pyridine-7-carboxylic acid 4-chloro-benzylamide]
16 | 657 | 126 | 5.2 | Nc1cc(C(=O)NCc2ccc(F)cc2)cc2nc(-c3nccs3)nn12 [Example 206, 5-Amino-2-thiazol-2-yl-[1,2,4]triazolo[1,5-a]pyridine-7-carboxylic acid 4-fluoro-benzylamide]
17 | 533 | 187 | 2.8 | COc1ccc(CNC(=O)c2cc(N)n3nc(-c4nccs4)nc3c2)cc1 [Example 207, 5-Amino-2-thiazol-2-yl-[1,2,4]triazolo[1,5-a]pyridine-7-carboxylic acid 4-methoxy-benzylamide]
18 | 1860 | 316 | 5.9 | COc1ccc(CNC(=O)c2cc(N)n3nc(-c4nccs4)nc3c2)cc1OC [Example 208, 5-Amino-2-thiazol-2-yl-[1,2,4]triazolo[1,5-a]pyridine-7-carboxylic acid 3,4-dimethoxy-benzylamide]
19 | 299 | 48.6 | 6.1 | Cc1ccc(-c2nc3cc(C(=O)NCc4ccccc4)cc(N)n3n2)o1 [Example 210, 5-Amino-2-(5-methyl-furan-2-yl)-[1,2,4]triazolo[1,5-a]pyridine-7-carboxylic acid benzylamide]
20 | 298 | 57.3 | 5.2 | Cc1ccc(-c2nc3cc(C(=O)NC(C)c4ccccc4)cc(N)n3n2)o1 (stereo not drawn) [Example 211, 5-Amino-2-(5-methyl-furan-2-yl)-[1,2,4]triazolo[1,5-a]pyridine-7-carboxylic acid (1-phenyl-ethyl)-amide]
21 | 634 | 190 | 3.3 | Cc1ccc(-c2nc3cc(C(=O)NCc4ccc(Cl)cc4)cc(N)n3n2)o1 [Example 212, 5-Amino-2-(5-methyl-furan-2-yl)-[1,2,4]triazolo[1,5-a]pyridine-7-carboxylic acid 4-chloro-benzylamide]
22 | 343 | 73.2 | 4.7 | Cc1ccc(-c2nc3cc(C(=O)NCc4ccc(F)cc4)cc(N)n3n2)o1 [Example 213, 5-Amino-2-(5-methyl-furan-2-yl)-[1,2,4]triazolo[1,5-a]pyridine-7-carboxylic acid 4-fluoro-benzylamide]
23 | 111 | 14.6 | 7.6 | COc1ccccc1CNC(=O)c1cc(N)n2nc(-c3ccc(C)o3)nc2c1 [Example 214, 5-Amino-2-(5-methyl-furan-2-yl)-[1,2,4]triazolo[1,5-a]pyridine-7-carboxylic acid 2-methoxy-benzylamide]
24 | 1540 | 295 | 5.2 | COc1ccc(CNC(=O)c2cc(N)n3nc(-c4ccc(C)o4)nc3c2)cc1 [Example 215, 5-Amino-2-(5-methyl-furan-2-yl)-[1,2,4]triazolo[1,5-a]pyridine-7-carboxylic acid 4-methoxy-benzylamide]
25 | 149 | 64.1 | 2.3 | Nc1cc(C(=O)NCc2ccccc2)cc2nc(-c3ccccc3)nn12 [Example 216, 5-Amino-2-phenyl-[1,2,4]triazolo[1,5-a]pyridine-7-carboxylic acid benzylamide]
26 | 72.6 | 84.6 | 0.9 | CC(NC(=O)c1cc(N)n2nc(-c3ccccc3)nc2c1)c1ccccc1 (stereo not drawn) [Example 217, 5-Amino-2-phenyl-[1,2,4]triazolo[1,5-a]pyridine-7-carboxylic acid (1-phenyl-ethyl)-amide]
27 | 116 | 47.2 | 2.5 | Nc1cc(C(=O)NCc2ccccc2Cl)cc2nc(-c3ccccc3)nn12 [Example 218, 5-Amino-2-phenyl-[1,2,4]triazolo[1,5-a]pyridine-7-carboxylic acid 2-chloro-benzylamide]
28 | 133 | 30 | 4.4 | Nc1cc(C(=O)NCc2ccccc2Br)cc2nc(-c3ccccc3)nn12 [Example 219, 5-Amino-2-phenyl-[1,2,4]triazolo[1,5-a]pyridine-7-carboxylic acid 2-bromo-benzylamide]
29 | 48.3 | 29.2 | 1.7 | COc1ccccc1CNC(=O)c1cc(N)n2nc(-c3ccccc3)nc2c1 [Example 220, 5-Amino-2-phenyl-[1,2,4]triazolo[1,5-a]pyridine-7-carboxylic acid 2-methoxy-benzylamide]
